The results in this text go back to the SangsterLogP compilation.

The data set in a line: method code SF-AS, from DOI: 10.1002/zfch.19780180919.
A word on the logP: it is the decadic logarithm of the partition coefficient of the neutral form, usually between octanol and water. A higher logP goes with higher lipophilicity. In turn, `NNC(=O)c1cccc(O)c1` came in with a logP of -0.08.

Consider `NNC(=O)c1ccc(N)cc1`, for which the lipophilicity (logP) was -0.75.

`NNC(=O)c1ccccc1[N+](=O)[O-]` returned a log partition coefficient (logP) of -0.54.

`COc1cccc(C(=O)NN)c1` returned a logP of 0.4.

In turn, `NNC(=O)c1ccc(I)cc1` showed a logP of 1.55.

As for `NNC(=O)c1cccc(N)c1`, the logP is -0.86.

Take `NNC(=O)c1ccccc1Br`: the log partition coefficient (logP) worked out at 0.26.

Take `COc1ccccc1C(=O)NN`: the logP was found to be 0.25.

In turn, `NNC(=O)c1cccc([N+](=O)[O-])c1` had a logP of 0.23.

On to `COc1ccc(C(=O)NN)cc1`, for which the logP came out at 0.25.

Compound `NNC(=O)c1ccc(Br)cc1` had a logP of 1.28.

In the case of `Cc1ccccc1C(=O)NN`, the logP turned out to be 0.22.

In turn, `NNC(=O)c1ccccc1N` yielded a logP of -0.18.

As to `NNC(=O)c1ccccc1Cl`, the logP came to 0.14.

In turn, `Cc1cccc(C(=O)NN)c1` had a logP of 0.74.

With `NNC(=O)c1ccc(Cl)cc1`, the logP is 1.12.

Take `NNC(=O)c1ccc(O)cc1`: the logP is -0.33.

On to `NNC(=O)c1cccc(I)c1`, for which the logP was 1.53.

In the case of `NNC(=O)c1ccc([N+](=O)[O-])cc1`, the logP was found to be 0.35.

Turning to `NNC(=O)c1cccc(Br)c1`, the log partition coefficient (logP) was 1.26.

For `Cc1ccc(C(=O)NN)cc1`, the lipophilicity (logP) is 0.73.

`NNC(=O)c1ccccc1O`: the logP worked out at 0.6.

Turning to `NNC(=O)c1cccc(Cl)c1`, the log partition coefficient (logP) is 1.18.

In turn, `NNC(=O)c1ccccc1I` returned a log partition coefficient (logP) of 0.47.
